Reference: patent publication US20020035061A1, “COMPOSITIONS AND METHODS FOR TREATING INFECTIONS USING CATIONIC PEPTIDES ALONE OR IN COMBINATION WITH ANTIBIOTICS” (priority 1996, published 2002)
Like-named read-outs stand apart in the source and are kept apart here.

Key:
Format in all cases: cell-based
A. calcoaceticus = tested on: A. calcoaceticus
E. cloacae = tested on: E. cloacae
E. coli = tested on: E. coli
E. faecalis = tested on: E. faecalis
E. faecium = tested on: E. faecium
K. pneumoniae = tested on: K. pneumoniae
P. aeruginosa = tested on: P. aeruginosa
S. aureus = tested on: S. aureus
S. epidermidis = tested on: S. epidermidis
S. maltophilia = tested on: S. maltophilia
S. marcescens = tested on: S. marcescens

Row | Sequence | MIC (E. cloacae; E. cloacae strain ECL007) | MIC (E. coli; E. coli strain ECO002) | MIC (E. faecalis; E. faecalis strain EFS002) | MIC (E. faecium; E. faecium strain EFM003) | MIC (K. pneumoniae; K. pneumoniae strain KP002) | MIC (S. aureus; S. aureus strain SA009) | MIC (S. maltophilia; S. maltophilia strain SMA001) | MIC (S. marcescens; S. marcescens strain SMS004) | MIC (A. calcoaceticus; A. calcoaceticus strain AC001) | MIC (E. coli; E. coli strain ECO003) | MIC (E. faecium; E. faecium strain EFM001) | MIC (P. aeruginosa; P. aeruginosa strain PA003) | MIC (S. maltophilia; S. maltophilia strain SMA002) | also measured
1 | ILKKWPWWPWRRIMILKKAGS [MBI 11D6CN] | >32 µg/mL | 32 µg/mL | 4 µg/mL | 1 µg/mL | >64 µg/mL | 8 µg/mL | >64 µg/mL | >64 µg/mL |  |  |  |  |  | MIC (A. calcoaceticus; A. calcoaceticus strain AC002): 4 µg/mL; MIC (P. aeruginosa; P. aeruginosa strain PA024): >64 µg/mL; MIC (S. epidermidis; S. epidermidis strain SE010): 4 µg/mL
2 | ILKKWPWWPWRRK [MBI 11E1CN] | >128 µg/mL |  | 8 µg/mL |  | 39 µg/mL |  | 64 µg/mL |  | 32 µg/mL | 8 µg/mL | 8 µg/mL | 128 µg/mL |  | MIC (S. aureus; S. aureus strain SA006): 1 µg/mL; MIC (S. marcescens; S. marcescens strain SMS003): >128 µg/mL
3 | ILKKWPWWPWRRK [MBI 11E2CN] | >128 µg/mL | 8 µg/mL | 32 µg/mL |  | 64 µg/mL |  | 64 µg/mL | >128 µg/mL |  |  | 16 µg/mL |  |  | MIC (A. calcoaceticus; A. calcoaceticus strain AC002): 4 µg/mL; MIC (P. aeruginosa; P. aeruginosa strain PA001): >128 µg/mL; MIC (S. aureus; S. aureus strain SA016): 2 µg/mL; MIC (S. epidermidis; S. epidermidis strain SE010): 4 µg/mL
4 | ILKKWPWWPWRRK [MBI 11] |  |  |  |  |  |  |  |  |  |  |  |  |  | MIC (A. calcoaceticus; A. calcoaceticus AC002): 8 µg/mL; MIC (E. cloacae; E. cloacae ECL007): >128 µg/mL; MIC (E. coli; E. coli ECO002): 64 µg/mL; MIC (E. faecalis; E. faecalis EFS002): 64 µg/mL; MIC (E. faecium; E. faecium EFM003): 4 µg/mL; MIC (K. pneumoniae; K. pneumoniae KP001): 128 µg/mL; MIC (P. aeruginosa; P. aeruginosa PA004): >128 µg/mL; MIC (S. aureus; S. aureus SA004): 4 µg/mL; MIC (S. maltophilia; S. maltophilia SMA002): 128 µg/mL; MIC (S. marcescens; S. marcescens SMS004): >128 µg/mL
5 | ILKKWPWWPWRRKMILKKAGS [MBI 11D4CN] | >64 µg/mL |  | 16 µg/mL |  | >64 µg/mL | 4 µg/mL | >64 µg/mL | >64 µg/mL | >64 µg/mL | 64 µg/mL |  |  |  | MIC (E. faecium; E. faecium strain EFM002): 1 µg/mL; MIC (P. aeruginosa; P. aeruginosa strain PA004): >64 µg/mL
6 | ILKKWPWWVWRRK [MBI 11F2CN] |  | 8 µg/mL | 32 µg/mL |  | 128 µg/mL |  |  | >128 µg/mL |  |  |  |  | 64 µg/mL | MIC (A. calcoaceticus; A. calcoaceticus strain AC002): 4 µg/mL; MIC (E. faecium; E. faecium strain EFM002): 4 µg/mL; MIC (P. aeruginosa; P. aeruginosa strain PA005): >128 µg/mL; MIC (S. aureus; S. aureus strain SA012): 4 µg/mL; MIC (S. epidermidis; S. epidermidis strain SE002): 4 µg/mL
7 | ILKKWPWWWRK [MBI 11D15CN] |  |  | 32 µg/mL | 4 µg/mL |  | 8 µg/mL |  |  |  |  |  |  |  | 
8 | ILKKWWWPWRK [MBI 11D14CN] |  |  | 32 µg/mL | 1 µg/mL |  | 4 µg/mL |  |  |  |  |  |  |  | 
9 | ILKKYPWYPWRRK [MBI 11A5CN] | >128 µg/mL |  | 32 µg/mL | 4 µg/mL |  |  |  |  | >128 µg/mL | 128 µg/mL |  | >128 µg/mL | >128 µg/mL | MIC (K. pneumoniae; K. pneumoniae strain KP001): >128 µg/mL; MIC (S. aureus; S. aureus strain SA002): 16 µg/mL; MIC (S. marcescens; S. marcescens strain SMS003): >128 µg/mL
10 | ILKWPWWPWRRK [MBI 11B3CN] | >128 µg/mL | 16 µg/mL |  |  | 64 µg/mL |  |  | >128 µg/mL | 64 µg/mL |  | 8 µg/mL | >128 µg/mL | 32 µg/mL | MIC (E. faecalis; E. faecalis strain EFS001): 16 µg/mL; MIC (S. aureus; S. aureus strain SA010): 4 µg/mL
11 | ILRRWPWWPWRK [MBI 11B2CN] | >128 µg/mL |  |  |  | 64 µg/mL |  |  | >128 µg/mL | 64 µg/mL | 16 µg/mL | 8 µg/mL | >128 µg/mL | 64 µg/mL | MIC (E. faecalis; E. faecalis strain EFS004): 8 µg/mL; MIC (S. aureus; S. aureus strain SA005): 2 µg/mL
12 | PWWPWRRK [MBI 11D3CN] | >128 µg/mL | 64 µg/mL | 32 µg/mL | 8 µg/mL | >128 µg/mL | 8 µg/mL | 64 µg/mL | >128 µg/mL | >128 µg/mL |  |  |  |  | MIC (P. aeruginosa; P. aeruginosa strain PA024): >128 µg/mL
